Tested on: BH4 levels in SK-N-BE (2) cells
Experiment: SKN-N-BE (2) cellular assay, BH4 levels by LC-MS
Format: cell-based
Conditions: Homo sapiens, SKNBE2, read-out: SK-N-BE(2) IC50, SK-N-BE (2) cells, BH4 levels by LC-MS

| Structure (SMILES) | IC50 |
| --- | --- |
| Cc1c(C(=O)N2CC(Cc3ccc(C(F)(F)F)cc3)C2)cnn1-c1nn2cccc2c(=O)[nH]1 [Q-0940] | 800 nM |
| Cc1c(C(=O)N2CCC(n3ccnc3)CC2)cnn1-c1nn2cccc2c(=O)[nH]1 [Q-0942] | 9100 nM |
| Cc1c(C(=O)N2CC3(CN(CC(F)F)C3)C2)cnn1-c1nn2cccc2c(=O)[nH]1 [Q-0945] | 1000 nM |
| Cc1c(C(=O)N2CC3CC(C)N(C(=O)C(C)(C)C)C3C2)cnn1-c1nn2cccc2c(=O)[nH]1 (stereo not shown) [Q-0946] | 1100 nM |
| Cc1c(C(=O)N2CC(CC(F)(F)F)C2)cnn1-c1nn2cccc2c(=O)[nH]1 [Q-0947] | 1000 nM |
| Cc1c(C(=O)N2CCN(CC(F)(F)F)CC2(C)C)cnn1-c1nn2cccc2c(=O)[nH]1 [Q-0949, 2-(4-(2,2-dimethyl-4-(2,2,2-trifluoroethyl)piperazine-1-carbonyl)-5-methyl-1H-pyrazol-1-yl)pyrrolo[1,2-f][1,2,4]triazin-4(3H)-one] | 200 nM |
| Cc1c(C(=O)N2CCC(N3CCOCC3)C2)cnn1-c1nn2cccc2c(=O)[nH]1 (stereo not shown) [Q-0950] | 6200 nM |
| Cc1c(C(=O)N2CCC3CCC(=O)N(C4CC4)C3C2)cnn1-c1nn2cccc2c(=O)[nH]1 (stereo not shown) [Q-0954] | 9000 nM |
| Cc1c(C(=O)N2CCCC(c3n[nH]c(C4CC4)n3)C2)cnn1-c1nn2cccc2c(=O)[nH]1 (stereo not shown) [Q-0955] | 10000 nM |
| COCC1(C#N)CCN(C(=O)c2cnn(-c3nn4cccc4c(=O)[nH]3)c2C)CC1 [Q-0957] | 1000 nM |
| Cc1c(C(=O)N2CCC(c3nncn3C3CC3)CC2)cnn1-c1nn2cccc2c(=O)[nH]1 [Q-0958] | 10000 nM |
| Cc1c(C(=O)N2CCC(C(F)(F)F)C2(C)C)cnn1-c1nn2cccc2c(=O)[nH]1 (stereo not shown) [Q-0959] | 1000 nM |
| Cc1c(C(=O)N2CCC(C(F)(F)F)C3(CCC3)C2)cnn1-c1nn2cccc2c(=O)[nH]1 (stereo not shown) [Q-0960] | 200 nM |
| Cc1c(C(=O)N2C[C@@H]3[C@@H](CF)[C@@H]3C2)cnn1-c1nn2cccc2c(=O)[nH]1 [Q-0961] | 700 nM |
| Cc1c(C(=O)N2CCC(F)(c3ccccn3)CC2)cnn1-c1nn2cccc2c(=O)[nH]1 [Q-0962] | 300 nM |
| Cc1c(C(=O)N2CCN(C(C#N)c3ccc(F)cc3)CC2)cnn1-c1nn2cccc2c(=O)[nH]1 (stereo not shown) [Q-0963] | 4000 nM |
| Cc1c(C(=O)N2CCN(C(C#N)c3cccs3)CC2)cnn1-c1nn2cccc2c(=O)[nH]1 (stereo not shown) [Q-0964] | 8900 nM |
| Cc1c(C(=O)N2CC3CCC2c2ccccc23)cnn1-c1nn2cccc2c(=O)[nH]1 (stereo not shown) [Q-0965] | 100 nM |
| Cc1c(C(=O)N2CCC(CC(F)(F)F)C2)cnn1-c1nn2cccc2c(=O)[nH]1 (stereo not shown) [Q-0966] | 1300 nM |
| Cc1c(C(=O)N2CC(C(F)(F)F)CC(C(F)(F)F)C2)cnn1-c1nn2cccc2c(=O)[nH]1 (stereo not shown) [Q-0967] | 1900 nM |
| Cc1c(C(=O)N2[C@H](C)CN(C(=O)OC(C)(C)C)C[C@@H]2C)cnn1-c1nn2cccc2c(=O)[nH]1 [Q-0968] | 400 nM |
| Cc1c(C(=O)N2C3CCC2CC(N(C)C(=O)c2ccccc2)C3)cnn1-c1nn2cccc2c(=O)[nH]1 (stereo not shown) [Q-0970] | 400 nM |
| Cc1c(C(=O)N2C[C@@H]3CCS(=O)(=O)[C@@H]3C2)cnn1-c1nn2cccc2c(=O)[nH]1 [Q-0971] | 7200 nM |
| Cc1ccc(OC2CC3CCC(C2)N3C(=O)c2cnn(-c3nn4cccc4c(=O)[nH]3)c2C)cc1 (stereo not shown) [Q-0974] | 100 nM |
| Cc1c(C(=O)N2CCN(c3nnc(C(F)(F)F)s3)CC2)cnn1-c1nn2cccc2c(=O)[nH]1 [Q-0975] | 1300 nM |
| COC1CCN(C(=O)c2cnn(-c3nn4cccc4c(=O)[nH]3)c2C)CC1 [Q-0976] | 1100 nM |
| Cc1c(C(=O)N2CC(OCC(F)F)C2)cnn1-c1nn2cccc2c(=O)[nH]1 [Q-0979] | 1400 nM |

| Structure (SMILES) | IC50 |
| --- | --- |
| Cc1c(C(=O)N2CCN(CC(F)(F)F)C(=O)C2)cnn1-c1nn2cccc2c(=O)[nH]1 [Q-0980] | 1300 nM |
| Cc1c(C(=O)N2CC(N3CC(F)C3)C2)cnn1-c1nn2cccc2c(=O)[nH]1 [Q-0981] | 1400 nM |
| Cc1c(C(=O)N2CCN(C(C#N)C(C)C)CC2)cnn1-c1nn2cccc2c(=O)[nH]1 (stereo not shown) [Q-0982] | 10000 nM |
| Cc1c(C(=O)N2CCC(c3nnc4n3CCC4)CC2)cnn1-c1nn2cccc2c(=O)[nH]1 [Q-0983] | 10000 nM |
| Cc1c(C(=O)N2CCC(n3nccc3C(F)(F)F)CC2)cnn1-c1nn2cccc2c(=O)[nH]1 [Q-0984] | 400 nM |
| Cc1c(C(=O)N2CC(N3CCC3)C2)cnn1-c1nn2cccc2c(=O)[nH]1 [Q-0985] | 9200 nM |
| Cc1c(C(=O)N2CC(OCC(F)(F)F)C2)cnn1-c1nn2cccc2c(=O)[nH]1 [Q-0987] | 1100 nM |
| Cc1c(C(=O)N2CCC(C3(C#N)CCCC3)CC2)cnn1-c1nn2cccc2c(=O)[nH]1 [Q-0988] | 69 nM |
| Cc1c(C(=O)N2C3CCCC2CN(Cc2ccccc2)C3)cnn1-c1nn2cccc2c(=O)[nH]1 [Q-0989] | 900 nM |
| Cc1c(C(=O)N2CCC(F)(c3ccc(Cl)cc3)CC2)cnn1-c1nn2cccc2c(=O)[nH]1 [Q-0990] | 200 nM |
| O=C(c1cn(-c2nn3cccc3c(=O)[nH]2)nc1Cl)N1CCC(C(F)(F)F)CC1 [Q-0991] | 100 nM |
| Cc1c(C(=O)N2CCC(N3CCC(F)(F)C3)C2)cnn1-c1nn2cccc2c(=O)[nH]1 (stereo not shown) [Q-0994] | 3000 nM |
| Cc1c(C(=O)N2CCC(F)(c3ccc(F)cc3)C2)cnn1-c1nn2cccc2c(=O)[nH]1 (stereo not shown) [Q-0996] | 1900 nM |
| Cc1c(C(=O)N2CC[C@H](OCc3cnc(Cl)s3)C2)cnn1-c1nn2cccc2c(=O)[nH]1 [Q-0997] | 1000 nM |
| Cc1c(C(=O)N2CCC(C3(C#N)CCC3)CC2)cnn1-c1nn2cccc2c(=O)[nH]1 [Q-0999] | 200 nM |
| Cc1c(C(=O)N2CC(OCc3ccc(F)c(F)c3)C2)cnn1-c1nn2cccc2c(=O)[nH]1 [Q-1000] | 900 nM |
| Cc1c(C(=O)N2CC3CC2C[C@@H]3C#N)cnn1-c1nn2cccc2c(=O)[nH]1 (stereo partly shown) [Q-1001] | 1800 nM |
| Cc1c(C(=O)N2CC3CC2C[C@H]3C#N)cnn1-c1nn2cccc2c(=O)[nH]1 (stereo partly shown) [Q-1002] | 3400 nM |
| Cc1c(C(=O)N2Cc3cc(C(F)(F)F)cnc3C2)cnn1-c1nn2cccc2c(=O)[nH]1 [Q-1004] | 3100 nM |
| COC1(C(F)(F)F)CCCN(C(=O)c2cnn(-c3nn4cccc4c(=O)[nH]3)c2C)C1 (stereo not shown) [Q-1006] | 1400 nM |
| Cc1c(C(=O)Nc2ccc(F)cc2C(C)(C)O)cnn1-c1nn2cccc2c(=O)[nH]1 [Q-1008] | 300 nM |
| Cc1c(C(=O)N2CC(N3CC[C@@H](F)C3)C2)cnn1-c1nn2cccc2c(=O)[nH]1 [Q-1009] | 2000 nM |
| Cc1c(C(=O)N2CCC(N3CC[C@@H](F)C3)C2)cnn1-c1nn2cccc2c(=O)[nH]1 (stereo partly shown) [Q-1010] | 4000 nM |
| Cc1c(C(=O)N2CC[C@@H](OCc3cnc(Cl)s3)C2)cnn1-c1nn2cccc2c(=O)[nH]1 [Q-1011] | 800 nM |
| Cc1c(C(=O)N2CCN(C(=O)Cc3ccccc3F)CC2)cnn1-c1nn2cccc2c(=O)[nH]1 [Q-1012] | 1300 nM |
| Cc1c(C(=O)N2Cc3cc(Cl)cnc3C2)cnn1-c1nn2cccc2c(=O)[nH]1 [Q-1013] | 1500 nM |
| Cc1c(C(=O)N2CCC[C@@H](OCC(F)(F)F)C2)cnn1-c1nn2cccc2c(=O)[nH]1 [Q-1014] | 1400 nM |

| Structure (SMILES) | IC50 |
| --- | --- |
| Cc1c(C(=O)N2CCC(N3CCCC(C(F)(F)F)C3)CC2)cnn1-c1nn2cccc2c(=O)[nH]1 (stereo not shown) [Q-1015] | 400 nM |
| Cc1c(C(=O)N2CCC(N3CCC[C@@H](F)C3)C2)cnn1-c1nn2cccc2c(=O)[nH]1 (stereo partly shown) [Q-1016] | 2400 nM |
| CCC(C#N)C1CCN(C(=O)c2nnn(-c3nn4cccc4c(=O)[nH]3)c2C)CC1 (stereo not shown) [Q-1017] | 300 nM |
| Cc1c(C(=O)N2CCC3(CCN(CCC(F)(F)F)C3)CC2)cnn1-c1nn2cccc2c(=O)[nH]1 [Q-1018] | 700 nM |
| Cc1c(C(=O)N2CCC(N3CCC[C@@H]3C(F)(F)F)CC2)cnn1-c1nn2cccc2c(=O)[nH]1 [Q-1019] | 400 nM |
| Cc1c(C(=O)N2CC(N3CCC(F)CC3)C2)cnn1-c1nn2cccc2c(=O)[nH]1 [Q-1021] | 1000 nM |
| Cc1c(C(=O)N2CC3(C2)CC(F)(F)C3)cnn1-c1nc2c(c(=O)[nH]1)CCC2 [Q-1023] | 700 nM |
| Cc1c(C(=O)N2CC(N3CCC[C@H](F)C3)C2)cnn1-c1nn2cccc2c(=O)[nH]1 [Q-1025] | 1200 nM |
| Cc1c(C(=O)N2CCC(N3CCC[C@H](F)C3)C2)cnn1-c1nn2cccc2c(=O)[nH]1 (stereo partly shown) [Q-1026] | 1700 nM |
| Cc1c(C(=O)N2CCC(N3CCC(F)CC3)C2)cnn1-c1nn2cccc2c(=O)[nH]1 (stereo not shown) [Q-1027] | 3100 nM |
| Cc1c(C(=O)N2CCC(O)(Cc3ccc(F)cc3)C2)cnn1-c1nn2cccc2c(=O)[nH]1 (stereo not shown) [Q-1028] | 1100 nM |
| Cc1c(C(=O)N2CCC(N3CCC[C@H]3C(F)(F)F)CC2)cnn1-c1nn2cccc2c(=O)[nH]1 [Q-1029] | 1000 nM |
| Cc1c(C(=O)N2CCC(N3CC[C@H](F)C3)C2)cnn1-c1nn2cccc2c(=O)[nH]1 (stereo partly shown) [Q-1030] | 3100 nM |
| Cc1c(C(=O)N2CC(N3CC[C@H](F)C3)C2)cnn1-c1nn2cccc2c(=O)[nH]1 [Q-1031] | 2300 nM |
| Cc1c(C(=O)N2CC(N3CC(O)(C(F)(F)F)C3)C2)cnn1-c1nn2cccc2c(=O)[nH]1 [Q-1032] | 10000 nM |
| Cc1c(C(=O)N2CC3CCCC(C2)N3CC(F)(F)F)cnn1-c1nn2cccc2c(=O)[nH]1 [Q-1035] | 100 nM |
| Cc1c(C(=O)N2CC3CCCC(C2)N3CCC(F)(F)F)cnn1-c1nn2cccc2c(=O)[nH]1 [Q-1036] | 70 nM |
| Cc1c(C(=O)N2C3CCC2CC(F)(c2ccc(Cl)cc2)C3)cnn1-c1nn2cccc2c(=O)[nH]1 (stereo not shown) [Q-1037] | 71 nM |
| Cc1c(C(=O)N2CCC(C)C(F)C2)cnn1-c1nn2cccc2c(=O)[nH]1 (stereo not shown) [Q-1039] | 300 nM |
| Cc1c(C(=O)N2CCC(C)CC2)cnn1-c1nn2cccc2c(=O)[nH]1 [Q-1040] | 300 nM |
| Cc1c(C(=O)N2CC(N3CC(F)(C(F)(F)F)C3)C2)cnn1-c1nn2cccc2c(=O)[nH]1 [Q-1042] | 1000 nM |
| Cc1c(C(=O)N2CC[C@@H](COc3nccc(Cl)n3)C2)cnn1-c1nn2cccc2c(=O)[nH]1 [Q-1043] | 1400 nM |
| Cc1c(C(=O)N2CCC[C@H](OCC(F)(F)F)C2)cnn1-c1nn2cccc2c(=O)[nH]1 [Q-1044] | 1000 nM |
| Cc1c(C(=O)N2CC3CCCC(C2)N3C(=O)OC(C)(C)C)cnn1-c1nc2c(c(=O)[nH]1)CCC2 [Q-1045] | 100 nM |
| Cc1c(C(=O)N2CCC(F)(F)C2)cnn1-c1nn2cccc2c(=O)[nH]1 [Q-1050] | 1400 nM |

— patent publication US9963462B2 (priority 2015, dated 2018)
